Each block holds one molecule with its values, some of them ahead of it.
What was measured:
Format in all cases: functional
Homo sapiens [1] = species on record: Homo sapiens; experiment: Inhibitory activity against LPS-stimulated IL-1 beta release from human monocytes
Homo sapiens [2] = species on record: Homo sapiens; experiment: Compound was tested for inhibitory effect on LPS-stimulated IL-1 alpha release from human monocytes
Homo sapiens [3] = species on record: Homo sapiens; experiment: Compound was tested for inhibitory effect on LPS-stimulated IL-6 release from human monocytes
Homo sapiens [4] = species on record: Homo sapiens; experiment: Compound was tested for inhibitory effect on LPS-stimulated IL-8 release from human monocytes
Homo sapiens [5] = species on record: Homo sapiens; experiment: Compound was tested for inhibitory effect on LPS-stimulated PGE-2 release from human monocytes
Homo sapiens [6] = species on record: Homo sapiens; experiment: Compound was tested for inhibitory effect on LPS-stimulated TNF-alpha release from human monocytes
Homo sapiens [7] = species on record: Homo sapiens; experiment: Compound was tested for inhibitory effect on LPS-stimulated IL-1 beta release from human monocytes
Homo sapiens [8] = species on record: Homo sapiens; experiment: Compound was tested for inhibitory activity against LPS-stimulated IL-1 beta release from human monocytes at concentration 3000 nM
Homo sapiens [9] = species on record: Homo sapiens; experiment: Compound was tested for inhibitory activity against LPS-stimulated IL-1 beta release from human monocytes; 80-700

- IC50 (Homo sapiens [1]): 200 nM
Structure (SMILES): CC(=O)Oc1cc2c(c(C)c1OC(C)=O)CC=C1[C@@]2(C)CC[C@H]2OC(=O)C[C@]12C

Structure (SMILES): Cc1c(O)c(O)cc2c1CC=C1C(C)(C)C(=O)CCC12C (stereo not drawn)
- IC50 (Homo sapiens [1]): 300 nM

- IC50 (Homo sapiens [1]): 2400 nM
- IC50 (Homo sapiens [2]): 100 nM
- IC50 (Homo sapiens [3]): 250 nM
- IC50 (Homo sapiens [4]): 300 nM
- IC50 (Homo sapiens [5]): 200 nM
- IC50 (Homo sapiens [6]): 190 nM
- IC50 (Homo sapiens [7]): 80 nM
Structure (SMILES): CC(=O)Oc1cc2c(c(C)c1OC(C)=O)CCC1=C(C)C(=O)CCC12C (stereo not drawn)

- IC50 (Homo sapiens [1]): 140 nM
Structure (SMILES): CC(=O)Oc1cc2c(cc1OC(C)=O)[C@]1(C)CC[C@H]3C(C)(C)C(=O)CC[C@]3(C)C1=CC2

- IC50 (Homo sapiens [1]): 2200 nM
Structure (SMILES): CCOC(=O)C[C@@]1(C)C(=O)CC[C@@]2(C)c3cc(OC(C)=O)c(OC(C)=O)cc3CC[C@H]12

- IC50 (Homo sapiens [1]): 700 nM
Structure (SMILES): COc1cc2c(c(C)c1O)CC=C1C(C)(C)C(=O)CCC12C (stereo not drawn)

- IC50 (Homo sapiens [1]): 700 nM
- IC50 (Homo sapiens [2]): 220 nM
- IC50 (Homo sapiens [3]): 400 nM
- IC50 (Homo sapiens [4]): 930 nM
- IC50 (Homo sapiens [5]): 600 nM
- IC50 (Homo sapiens [6]): 500 nM
- IC50 (Homo sapiens [7]): 180 nM
Structure (SMILES): CC(=O)Oc1cc2c(c(C)c1OC(C)=O)C=CC1=C(C)C(=O)CCC12C (stereo not drawn)

Structure (SMILES): CC(=O)Oc1cc2c(cc1OC(C)=O)[C@]1(C)CCC(=O)[C@](C)(Cc3ccc(C(=O)O)cc3)[C@H]1CC2
- inhibition at 3 µM (Homo sapiens [8]): 16%

- IC50 (Homo sapiens [1]): 200 nM
Structure (SMILES): CC(=O)Oc1cc2c(c(C)c1OC(C)=O)CC=C1C(C)(C)C(=O)CCC12C (stereo not drawn)

- IC50 (Homo sapiens [2]): 240 nM
- IC50 (Homo sapiens [3]): 430 nM
- IC50 (Homo sapiens [4]): 1000 nM
- IC50 (Homo sapiens [5]): 520 nM
- IC50 (Homo sapiens [6]): 460 nM
Structure (SMILES): COc1cc2c(c(C)c1OC)CCC(=O)C2C (stereo not drawn)

- IC50 (Homo sapiens [9]): 80 nM
Structure (SMILES): CC1=C(O)C(=O)C=C2C1=CC=C1C(C)(C)C(=O)CCC21C (stereo not drawn)

- IC50 (Homo sapiens [1]): 200 nM
Structure (SMILES): CC(=O)Oc1cc2c(c(C)c1OC(C)=O)CC=C1C(C)(C)C(=O)CC[C@]12C

- IC50 (Homo sapiens [1]): 100 nM
Structure (SMILES): CC(=O)Oc1cc2c(c(C)c1OC(C)=O)CC=C1C(C)(C)[C@H](OC(C)=O)CC[C@]12C

- IC50 (Homo sapiens [1]): 900 nM
Structure (SMILES): CC(=O)Oc1cc2c(c(C)c1OC(C)=O)CC(C(C)=O)=C1[C@@]2(C)CC[C@H]2OC(=O)C[C@]12C

Structure (SMILES): CC1=C(O)C(=O)C=C2C1=CC=C1[C@@]2(C)CC[C@@]2(C)[C@@H]3C[C@](C)(C(=O)O)CC[C@]3(C)CC[C@]12C [CELASTROL]
- IC50 (Homo sapiens [1]): 40 nM
- IC50 (Homo sapiens [2]): 40 nM
- IC50 (Homo sapiens [3]): 80 nM
- IC50 (Homo sapiens [4]): 210 nM
- IC50 (Homo sapiens [5]): 110 nM
- IC50 (Homo sapiens [6]): 210 nM
- IC50 (Homo sapiens [7]): 40 nM

- IC50 (Homo sapiens [2]): 130 nM
- IC50 (Homo sapiens [3]): 340 nM
- IC50 (Homo sapiens [4]): 480 nM
- IC50 (Homo sapiens [5]): 450 nM
- IC50 (Homo sapiens [6]): 190 nM
Structure (SMILES): COc1cc2c(c(C)c1OC)C=CC1=C(C)C(=O)CCC12C (stereo not drawn)

- IC50 (Homo sapiens [1]): 80 nM
Structure (SMILES): CC(=O)Oc1cc2c(c(C)c1OC(C)=O)CC=C1[C@@]3(C)CCC(=O)C(C)=C3CC[C@]12C
